From US10968462B2, “Plants having increased tolerance to herbicides” (BASF AGRO B.V., priority 2013, dated 2021)
Numbering of substitutions follows the chain as printed. Values joined by “and” are separate entries in the source; they are usually repeats but may differ in a detail not shown here. Equal entries are not always repeated. Where two headings read alike, the source gives them in different places.

What was measured:
Assay type in all cases: biochemical, Amaranthus tuberculatum
[1] = biological target: T1, wild type and amino acid substituted PPO enzyme (PPO2) of SEQ ID NO: 2 (AMARE) (Amaranthus tuberculatus, UniProt Q0NZW9, L397A/F420M, form not given)
T1 sequence (Q0NZW9 1-534 L397A/F420M): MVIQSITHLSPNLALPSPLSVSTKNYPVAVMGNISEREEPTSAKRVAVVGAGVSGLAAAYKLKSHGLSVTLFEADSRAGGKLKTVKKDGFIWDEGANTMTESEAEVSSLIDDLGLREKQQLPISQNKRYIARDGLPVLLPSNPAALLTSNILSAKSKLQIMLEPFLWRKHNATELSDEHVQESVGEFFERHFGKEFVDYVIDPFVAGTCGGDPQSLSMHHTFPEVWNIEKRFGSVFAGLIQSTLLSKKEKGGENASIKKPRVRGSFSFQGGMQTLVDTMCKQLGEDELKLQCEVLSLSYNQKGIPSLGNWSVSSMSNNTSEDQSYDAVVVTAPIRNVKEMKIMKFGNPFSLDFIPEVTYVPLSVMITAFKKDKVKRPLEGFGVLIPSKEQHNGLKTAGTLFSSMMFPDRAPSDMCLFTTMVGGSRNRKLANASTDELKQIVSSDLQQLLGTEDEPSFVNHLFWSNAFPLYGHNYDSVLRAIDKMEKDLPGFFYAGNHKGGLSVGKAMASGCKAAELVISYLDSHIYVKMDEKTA

[2] = system: wild type and amino acid substituted PPO enzyme (PPO2) of SEQ ID NO: 2 (AMARE)
[3] = biological target: T2, wild type and amino acid substituted PPO enzyme (PPO2) of SEQ ID NO: 2 (AMARE) (Amaranthus tuberculatus, UniProt Q0NZW9, R128A/F420L, form not given)
T2 sequence (Q0NZW9 1-534 R128A/F420L): T1 sequence (Q0NZW9 1-534 L397A/F420M) with R128A, A397L, M420L

[4] = biological target: T3, wild type and amino acid substituted PPO enzyme (PPO2) of SEQ ID NO: 2 (AMARE) (Amaranthus tuberculatus, UniProt Q0NZW9, R128I/F420L, form not given)
T3 sequence (Q0NZW9 1-534 R128I/F420L): T1 sequence (Q0NZW9 1-534 L397A/F420M) with R128I, A397L, M420L

CCOCCOC(=O)C(OC)Oc1ccccc1Oc1cc(-n2c(=O)cc(C(F)(F)F)n(C)c2=O)c(F)cc1Cl (stereo not drawn)
IC50 [1]: 687 nM

COC(Oc1ccccc1Oc1cc(-n2c(=O)cc(C(F)(F)F)n(C)c2=O)c(F)cc1Cl)C(=O)OCC(F)F (stereo not drawn)
IC50 [1]: 328 nM

COC(Oc1ccccc1Oc1cc(-n2c(=O)cc(C(F)(F)F)n(C)c2=O)c(F)cc1Cl)C(=O)OCc1ccncc1 (stereo not drawn)
IC50 [1]: 878 nM

COC(Oc1ccccc1Oc1cc(-n2c(=O)cc(C(F)(F)F)n(C)c2=O)c(F)cc1Cl)C(=O)OCC1(C)CC1 (stereo not drawn)
IC50 [1]: 404 nM

COC(Oc1ccccc1Oc1cc(-n2c(=O)cc(C(F)(F)F)n(C)c2=O)c(F)cc1Cl)C(=O)OC1CCCCC1 (stereo not drawn)
IC50 [1]: 1660 nM
inhibition (%) at 1 × 10−5M [2]: 26%

COC(=O)C(OC)Oc1ccccc1Oc1cc(-n2c(=O)cc(C(F)(F)F)n(C)c2=O)c(F)cc1Cl (stereo not drawn)
IC50 [1]: 273 nM
IC50 [2]: 11.6 nM

CCOC(=O)COc1ncccc1Oc1cc(-n2c(=O)cc(C(F)(F)F)n(C)c2=O)c(F)cc1Cl [A.13, ethyl [3-[2-chloro-4-fluoro-5-(1-methyl-6-trifluoromethyl-2,4-dioxo-1,2,3,4-tetrahydropyrimidin-3-yl)phenoxy]-2-pyridyloxy]acetate, reference compound]
IC50 [3]: 277 nM
IC50 [4]: 201 nM

O=C(O)c1cc(Oc2ccc(C(F)(F)F)cc2Cl)ccc1[N+](=O)[O-] [ACIFLUORFEN]
IC50 [3]: ≥ 10000 nM
inhibition (%) at 1 × 10−5M [3]: 20%
IC50 [4]: ≥ 10000 nM
inhibition (%) at 1 × 10−5M [4]: 16%
inhibition (%) at 1 × 10−5M [2]: 27% and 33%

C#CCN1C(=O)C(F)(F)Oc2cc(F)c(-n3c(=O)n(C)c(=S)n(C)c3=O)cc21 [BAS 850H]
IC50 [3]: 29.6 nM and 15.6 nM
IC50 [4]: 405 nM and 245 nM

C=CCOC(=O)C(C)(C)OC(=O)c1cc(-n2c(=O)cc(C(F)(F)F)n(C)c2=O)ccc1Cl [BUTAFENACIL]
IC50 [3]: 91.7 nM
IC50 [4]: 80.2 nM

CCOC(=O)C(Cl)Cc1cc(-n2nc(C)n(C(F)F)c2=O)c(F)cc1Cl (stereo not drawn) [CARFENTRAZONE-ETHYL]
IC50 [3]: 429 nM
IC50 [4]: 161 nM

CCOC(=O)/C(Cl)=C/c1cc(N2C(=O)C3=C(CCCC3)C2=O)ccc1Cl [CINIDON-ETHYL]
inhibition (%) at 1 × 10−5M [3]: 48%
IC50 ([3]; read-out: IC50): ≥ 10000 nM
IC50 ([4]; read-out: IC50): 9510 nM
inhibition (%) at 1 × 10−5M [2]: 48%

C#CCN1C(=O)COc2cc(F)c(N3C(=O)C4=C(CCCC4)C3=O)cc21 [FLUMIOXAZIN]
IC50 [3]: ≥ 10000 nM
inhibition (%) at 1 × 10−5M [3]: −8%
IC50 [4]: ≥ 10000 nM
inhibition (%) at 1 × 10−5M [4]: 9%
inhibition (%) at 1 × 10−5M [2]: 41% and 48%

CS(=O)(=O)NC(=O)c1cc(Oc2ccc(C(F)(F)F)cc2Cl)ccc1[N+](=O)[O-] [FOMESAFEN]
IC50 [3]: 9910 nM
IC50 [4]: ≥ 10000 nM
inhibition (%) at 1 × 10−5M [4]: 38%

CCOC(=O)C(C)OC(=O)c1cc(Oc2ccc(C(F)(F)F)cc2Cl)ccc1[N+](=O)[O-] (stereo not drawn) [LACTOFEN]
IC50 [3]: 68.8 nM
IC50 [4]: 130 nM

CCOc1cc(Oc2ccc(C(F)(F)F)cc2Cl)ccc1[N+](=O)[O-] [OXIFLUORFEN]
IC50 [3]: 558 nM
IC50 [4]: 4210 nM

OXADIARGYL
IC50 ([3]; read-out: IC50): 1370 nM
IC50 ([4]; read-out: IC50): 864 nM
